Earlier results, collected in patent publication US20070032466A1, “Drug containing chymase inhibitor as the active ingredient” (TEIJIN PHARMA LIMITED, priority 2003, published 2007).

What was measured:
mouse allergy model = settings: oral administration
[1] = tested on: hamster model of myocardial infarction; settings: administrated alone
[2] = tested on: canine model of myocardial infarction; settings: oral administration
new onset of diabetes = settings: large scale clinical tests (CARPPP, HOPE, LIFE studies)

Row | SMILES | suppression of new onset of diabetes (new onset of diabetes) | other results
1 | COC(=O)c1ccc2oc(C(=O)C(Cc3ccccc3)NC(=O)Cn3c(-c4ccccc4OC)ncc(N)c3=O)nc2c1 (stereo not drawn) [IV-I] |  | activity as a chymase inhibitor in a mouse allergy model (mouse allergy model): exhibit activity as a chymase inhibitor
2 | CCOc1ccccc1CC1C(=O)N(C(=O)NC(c2ccc(C)cc2)c2ccc(C)cc2)C1C(=O)c1ccc(C(=O)O)cc1 (stereo not drawn) [4-[1-{[bis(4-methylphenyl)methyl]carbamoyl}-3-(2-ethoxybenzyl)-4-oxoazetizin-2-yloyl]benzoic acid] |  | effect on a hamster model of myocardial infarction [1]: has an effect
3 | O=CNc1cnc(-c2ccccc2)n(CC(=O)NC(Cc2ccccc2)C(=O)C(=O)CCCOc2ccccn2)c1=O (stereo not drawn) [III-I] |  | effectiveness in a canine model of myocardial infarction [2]: effective
4 | CCOC(=O)[C@H](CCc1ccccc1)N[C@@H](C)C(=O)N1[C@H](C(=O)O)C[C@@H]2CCC[C@@H]21 [ramipril] | suppress new onset of diabetes | 
5 | C[C@H](CS)C(=O)N1CCC[C@H]1C(=O)O [captopril] | suppress new onset of diabetes | 
6 | CCCCc1nc(Cl)c(CO)n1Cc1ccc(-c2ccccc2-c2nn[nH]n2)cc1 [losartan] | suppress new onset of diabetes | 
